How the values were obtained:
[1] = target: T1, recombinant human CSE (hCSE) (Homo sapiens, UniProt P32929); test: High-throughput screening pyruvate assay for CSE activators; assay type: biochemical; conditions: 5 μM; % of pyruvate generated over hCSE alone
T1 construct: purchased ProteoGenix, France
Method: The chemical reactions involved in the 2 step assay are depicted. In (a) recombinant human CSE (hCSE) is incubated with L-cysteine, generating H2S and pyruvate. In (b) pyruvate is oxidized by pyruvate oxidase (PDX) to generate acetate, carbon dioxide (CO2) and hydrogen peroxide (H2O2). H2O2 then reacts with Amplex Red in a 1:1 stoichiometry to form the red fluorescent product, resorufin. (c) hCSE-dependent pyruvate measurement without enzyme (no pyruvate production), with the specific CSE inhibitor AVG 5 μM (inhibition of pyruvate production) and with the CSE activator calmodulin 5 μM (increased pyruvate production). Results were expressed as the % of pyruvate generated over hCSE alone. (d) Chemical structure of the new small molecule CSE activator SU004. (e) CSE-dependent pyruvate upon incubation of hCSE with L-cysteine and with increasing concentration of SU004. The ability of SU004 to activate hCSE was calculated as % of normalized activity.
We therefore hypothesized that potential CSE activators could counter these effects and be of therapeutic value in musculoskeletal HC. We set up a screening assay with human recombinant CSE (hCSE) and L-Cysteine as substrate, using as read-out the production of pyruvate as a surrogate of H2S production. As expected, pyruvate was detected only in presence of hCSE. […]

[2] = system: WT murine primary chondrocytes; test: Murine primary chondrocyte calcification (Alizarin red); assay type: cell-based, mouse
Method: (a) WT and Cse-deficient chondrocytes were incubated with a CSE activator (SU004, 50 μM) previously identified by high-through put screen, or with the equivalent volume of DMSO (0.1%) for 24 hours in calcification medium. STS 25 mM was used as a positive control for calcification inhibition. Calcium-containing crystals were stained with Alizarin red and quantified. (b) Cytotoxicity was assessed by LDH measurement and expressed as % over 100% cytotoxicity. (c) IL-6 secretion was measured by ELISA in supernatant of WT chondrocytes incubated with SU004 50 μM or STS 25 mM for 24 hours in calcification medium. (d) Primary human chondrocytes from 3 OA patients (P1, P2, P3) were incubated with SU004 50 μM, or with the equivalent volume of DMSO (0.1%) for 24 hours in calcification medium. Calcium-containing crystals were stained with Alizarin red and quantified. (e) Cytotoxicity was assessed by LDH measurement and expressed as % over 100% cytotoxicity. (f) IL-6 secretion was measured by ELISA in supernatant of human chondrocytes incubated for 24 hours with SU004 50 μM in calcification medium. *p<0.05, ** p<0.01, ****p<0.0001.
Primary murine chondrocytes were stimulated with secondary calciprotein particles (sCPP) for 24 h in DMEM+10% FBS in presence of C5 or C6 at 50 uM or vehicle (DMSO). Mineralization was analyzed by Alizarin red staining of the cells (A) and quantified (B). Statistical analysis was determined using one-way ANOVA with **p<0.01 and ***p<0.001.
Chondrocytes were isolated from 6 days old mice (Cse KO, Cse tg, Cbs KO and corresponding WT mice) as described previously (Nasi, So, et al. 2016). Tenocytes were isolated from 6 to 8 weeks old mice (Cse KO and WT) and by double digestion in Collagenase IV NB standard grade (Witec AG). […]
After incubation in calcification media, supernatant was collected for ELISA and LDH measurement, and cell monolayer was washed in PBS, fixed in 10% formol and crystal deposition analyzed through Alizarin red staining and quantified as previously described

ATDCS chondrocytes = test: ATDCS chondrocyte mineralization (Alizarin red); assay type: cell-based; conditions: sCPP 24 h, different concentrations
Method: Alizarin red staining of ATDCS chondrocytes stimulated with sCPP for 24 h in DMEM+10% FBS in presence of different concentrations of compounds C5 and C6. The graphs show Alizarin red absorbance at 570-630 nm. Statistical analysis (in comparison to 0) was determined using one-way ANOVA with *p<0.05, **p<0.01, ***p<0.001, […].

MOVAS cells [3] = test: Cytotoxicity assay, LDH release; assay type: cell-based, mouse; conditions: at 50 uM
Method: A) Alizarin red staining of MOVAS cells stimulated with CPP for 24 h in DMEM+10% FBS in presence of different concentrations of compound 22401. […] The background (Alizarin red staining obtained with cells in the absence of CPP) was subtracted from all values. B) Percentage of cytotoxicity, as measured by LDH release, in MOVAS cells in the same conditions as A). Statistical analysis was determined using one-way ANOVA with *p<0.05, **p<0.01, ***p<0.001.
Measurement of lactate dehydrogenase (LDH) as a means of cytotoxicity assay was performed with using CytoTox-ONE Homogeneous Membrane Integrity Assay (Promega) according to the manufacturer's instructions. Values were calculated as percentage of cytotoxicity using the following formula: [(value in sample)−(background)]/[(value in Triton X-100-treated sample)−(background)]×100.

MOVAS cells [4] = test: MOVAS cell calcification assay (Alizarin red); assay type: cell-based, mouse
Method: A) Alizarin red staining of MOVAS cells stimulated with sCPP for 24 h in DMEM+10% FBS and treated or not with 50 uM of compounds. […] Statistical analysis was determined using one-way ANOVA with ***p<0.001. C) Percentage of cytotoxicity (LDH %) in MOVAS treated or not with compounds for 24 h. D) MOVAS cells were seeded onto half-area 96-well plate and incubated overnight. Then C5 or C6 at 50 uM or vehicle (DMSO), L-cysteine at 10 mM, PLP at 5 uM and the H2S sensitive fluorescent probe AzMC at 10 μM were added. The fluorescence was immediately measured in kinetic mode for 2 h at 37° C. with SpectraMax M5 reader, with excitation and emission wavelengths of 365 nm and 450 nm, respectively.
A) Alizarin red staining of Movas cells stimulated with sCPP for 24 h in DMEM+10% FBS and treated or not with 50 uM of Z20. […] C) Percentage of cytotoxicity (LDH %) in murine chondrocytes treated or not with Z20 for 24 h. Statistical analysis was determined using one-way ANOVA with ***p<0.001.
Alizarin red staining of MOVAS cells stimulated with sCPP for 24 h in DMEM+10% FBS and treated or not with different concentrations of compounds (A: C6) and (B: Z20). The graphs show Alizarin red absorbance at 570-630 nm. Statistical analysis was determined using one-way ANOVA with *p<0.05, **p<0.01, ***p<0.001.
CPP were generated by preparing 20 ml DMEM containing 10% FBS, 1 mmol/L CaCl2, 3.5 mmol/L inorganic phosphate (1.36 mmol/L NaH2PO4 and 2.14 mmol/L Na2HPO4) (Aghagolzadeh et al. Atherosclerosis, 2016). After 7 days incubation at 37° C., the suspension was centrifuged at 25000 g for 2 h at 4° C., and the pellet containing CPP was resuspended in 1 ml DMEM and stored at −20° C. until further use.
Mouse vascular smooth muscle cell line (MOVAS) cells were cultured according to the manufacturer's guidelines in DMEM culture medium supplemented with 10% FBS. Cells were cultured at 37° C. in a humidified atmosphere with 5% CO2. All cell culture experiments in 96-well plates were performed in triplicates and were repeated independently two times.
For calcification experiments, cells were seeded in 96-well plates at a density of 50,000 cells/well and left to attach for 18 h. Calcification of cell monolayers was induced by CPP (equivalent to 50 μg Ca/mL) for 24 h at 37° C., 5% CO2 in presence of various concentrations of compounds (all in final 0.1% DMSO), or of 0.1% DMSO as a control, to reach a final volume of 200 μl/well. Calcium deposition was assessed by 0.5% w/v Alizarin Red staining (pH 4.2). Briefly, after PBS washing, methanol fixation for 10 min at 4° C., and milli-Q water washing, cells were incubated for 60 min with 200 μL Alizarin Red solution and then washed four times with milli-Q water. Quantification was performed after crystal dissolution with cetylpyridinium chloride (10%) for 18 h. The absorbance was measured at 570 and 630 nm using the Spectramax M5e reader (Molecular Devices). The background (alizarin red staining obtained with cells in the absence of CPP) was subtracted from all values.

T1 sequence (P32929 whole entry): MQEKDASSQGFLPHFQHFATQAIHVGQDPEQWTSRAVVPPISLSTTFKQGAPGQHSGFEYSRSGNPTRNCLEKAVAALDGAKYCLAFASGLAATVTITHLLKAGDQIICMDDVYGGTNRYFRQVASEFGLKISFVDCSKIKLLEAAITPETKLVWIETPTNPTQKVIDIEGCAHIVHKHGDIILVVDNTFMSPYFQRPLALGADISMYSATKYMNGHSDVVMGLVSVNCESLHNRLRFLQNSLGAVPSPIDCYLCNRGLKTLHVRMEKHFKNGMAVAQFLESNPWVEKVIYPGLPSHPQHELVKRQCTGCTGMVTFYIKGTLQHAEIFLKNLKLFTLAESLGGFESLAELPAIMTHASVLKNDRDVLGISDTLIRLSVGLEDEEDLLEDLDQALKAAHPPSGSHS

Compound: NCCO/C=C/C(N)C(=O)O (stereo not drawn) [AVG]
- hCSE-dependent pyruvate production [1]: almost complete inhibition

Compound: calmodulin
- hCSE-dependent pyruvate production [1]: pyruvate up-modulation

Compound: N[C@@H](CCS)C(=O)O [homocysteine, reference compound]
- Calcification ([2]; WT chondrocytes incubated with 100 μM or 25 μM): significantly decreased

Compound: N-{1-[(pyridin-2-yl)methyl]-1H-pyrazol-4-yl}benzamide [Compound 12]
- Mineralization (Alizarin red absorbance 570-630 nm) (ATDCS chondrocytes): inhibit ATDCS mineralization in vitro in a dose dependent fashion
- Cytotoxicity assay LDH release (% of cytotoxicity) (MOVAS cells [3]): 13% at
- Calcification assay Max calcification inhibition (%) at the indicated dose of compound (uM) (MOVAS cells [4]; at 50 uM): 43% at
- Mineralization (Alizarin red) (MOVAS cells [4]; sCPP 24 h, 50 uM): inhibit murine vascular smooth muscle cells (MOVAS cells) mineralization
- Mineralization (Alizarin red absorbance 570-630 nm) (MOVAS cells [4]; sCPP 24 h, different concentrations): Dose-dependent effect
- Mineralization (Alizarin red) ([2]; sCPP 24 h, DMEM+10% FBS, 50 uM): inhibit primary murine chondrocyte mineralization

Reference: patent US20240182475A1 (Université de Lausanne, priority 2021, published 2024)
